Key:
[1] = target: RNR (RNR1:RNR2) (Homo sapiens (Human), UniProt P23921+P31350); test: RNR enzyme activity, rapid-fire mass spectrometry (RFMS) assay; format: biochemical; settings: [RNR] 50 nM, 1:1 RNR1:RNR2, [CDP] 5 μM, [ATP] 1 mM, 37° C., 45 min
Procedure, shortened: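 RNR1:RNR2 (1:1, 50 nM final) was preincubated 15 min at room temperature with compound (10 nM–30 μM), then reacted 45 min at 37° C. with 5 μM CDP and 1 mM ATP, without NADPH. Reactions were stopped with 6% formic acid and read by RapidFire mass spectrometry.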

[2] = test system: pCHK1 (S345) in Colo320 DM cells; test: CHK1 cellular activity (phospho-CHK1 AlphaLisa); format: cell-based, human; settings: Homo sapiens, COLO 320DM, 16 h, compound overnight (approximately 16 hours)
Procedure, shortened: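 Colo320 DM cells (50,000/well, RPMI-1640 with 10% FBS) were treated with compound overnight (~16 h) at 37 °C, final DMSO <0.5%. Lysates were assayed for pCHK1 (S345) by AlphaLisa SureFire, a replication-stress marker downstream of RNR inhibition.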

RNR (RNR1:RNR2), sequence (P23921 whole entry): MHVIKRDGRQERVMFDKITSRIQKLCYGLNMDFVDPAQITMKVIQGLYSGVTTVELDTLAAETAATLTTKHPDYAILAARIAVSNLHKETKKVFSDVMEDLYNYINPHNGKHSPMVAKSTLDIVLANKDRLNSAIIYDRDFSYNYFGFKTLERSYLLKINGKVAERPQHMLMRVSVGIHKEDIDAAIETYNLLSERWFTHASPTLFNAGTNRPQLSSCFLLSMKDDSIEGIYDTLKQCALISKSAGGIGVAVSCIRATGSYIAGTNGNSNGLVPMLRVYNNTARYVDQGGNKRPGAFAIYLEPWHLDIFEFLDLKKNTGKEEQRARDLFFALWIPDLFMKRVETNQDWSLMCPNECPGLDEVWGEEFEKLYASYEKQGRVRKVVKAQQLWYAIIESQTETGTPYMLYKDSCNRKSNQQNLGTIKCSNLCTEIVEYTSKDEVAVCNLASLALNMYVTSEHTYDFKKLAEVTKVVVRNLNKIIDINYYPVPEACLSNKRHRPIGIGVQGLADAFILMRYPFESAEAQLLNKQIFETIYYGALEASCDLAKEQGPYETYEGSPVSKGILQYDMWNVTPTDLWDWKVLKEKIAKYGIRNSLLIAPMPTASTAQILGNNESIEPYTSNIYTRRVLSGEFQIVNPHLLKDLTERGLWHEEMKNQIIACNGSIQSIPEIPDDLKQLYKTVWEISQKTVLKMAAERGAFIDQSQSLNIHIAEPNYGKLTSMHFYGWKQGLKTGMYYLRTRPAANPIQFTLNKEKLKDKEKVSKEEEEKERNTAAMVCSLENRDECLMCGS
RNR (RNR1:RNR2), sequence (P31350 whole entry): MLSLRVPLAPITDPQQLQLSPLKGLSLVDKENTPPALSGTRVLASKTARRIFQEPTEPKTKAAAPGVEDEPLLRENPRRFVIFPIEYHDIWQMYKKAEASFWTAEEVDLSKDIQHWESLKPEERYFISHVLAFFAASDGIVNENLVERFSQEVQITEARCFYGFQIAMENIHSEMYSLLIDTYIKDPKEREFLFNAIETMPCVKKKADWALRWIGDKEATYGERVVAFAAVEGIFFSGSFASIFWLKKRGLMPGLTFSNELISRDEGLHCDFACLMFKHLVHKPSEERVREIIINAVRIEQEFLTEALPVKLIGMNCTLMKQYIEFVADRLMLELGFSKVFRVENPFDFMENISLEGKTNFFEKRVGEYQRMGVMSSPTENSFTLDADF

Row | Compound | IC50 [1] [µM] | IC50 [2] [µM]
1 | Cc1ccc(F)c([C@@H](C)[C@H](NS(=O)(=O)c2cccc3[nH]c(=O)ccc23)c2nn[nH]n2)c1C [Example 47] | 0.1 to 1 | 50 to 100
2 | Cc1ccc(F)c([C@@H](C)[C@H](NS(=O)(=O)c2ccc(Cl)cc2CC(=O)N2CCOCC2)c2nn[nH]n2)c1C [Example 26, 4-chloro-N-((1S,2R)-2-(6-fluoro-2,3-dimethylphenyl)-1-(2H-tetrazol-5-yl)propyl)-2-(2-morpholino-2-oxoethyl)benzenesulfonamide] | 0.1 to 1 | 50 to 100
3 | COc1c(S(=O)(=O)N[C@H](c2nn[nH]n2)[C@H](C)c2c(F)ccc(C)c2C)ccc(C#N)c1F (racemic) [Example 70, rac-4-cyano-3-fluoro-N-((1R,2S)-2-(6-fluoro-2,3-dimethylphenyl)-1-(2H-tetrazol-5-yl)propyl)-2-methoxybenzenesulfonamide] | 0.1 to 1 | 50 to 100
4 | Cc1ccc(F)c([C@@H](C)[C@H](NS(=O)(=O)c2ccc(Cl)c([C@H](O)C(=O)N(C)C)c2)c2nn[nH]n2)c1C [Example 58, (S)-2-(2-chloro-5-(N-((1S,2R)-2-(6-fluoro-2,3-dimethylphenyl)-1-(2H-tetrazol-5-yl)propyl)sulfamoyl)phenyl)-2-hydroxy-N,N-dimethylacetamide] | 0.1 to 1 | 50 to 100

Results, then the compound that gave them:

Row | IC50 [1] [µM] | IC50 [2] [µM] | Compound
5 | 0.1 to 1 | 50 to 100 | Cc1ccc(F)c([C@@H](C)[C@H](NS(=O)(=O)c2ccc(Cl)cc2C#N)c2nn[nH]n2)c1C [Example 5, 4-chloro-2-cyano-N-((1S2R)-2-(6-fluoro-2,3-dimethylphenyl)-1-(2H-tetrazol-5-yl)propyl)benzenesulfonamide]
6 | ≤ 0.1 | 10 to 30 | Cc1ccc(F)c([C@@H](C)[C@H](NS(=O)(=O)c2ccc(Cl)cc2OC(F)F)c2nn[nH]n2)c1C [Example 27, 4-chloro-2-(difluoromethoxy)-N-((1S,2R)-2-(6-fluoro-2,3-dimethylphenyl)-1-(2H-tetrazol-5-yl)propyl)benzenesulfonamide]
7 | 0.1 to 1 | 30 to 50 | Cc1ccc(F)c([C@@H](C)[C@H](NS(=O)(=O)c2ccc(Cl)cc2CC(=O)N(C)C)c2nn[nH]n2)c1C [Example 22, 2-(5-chloro-2-(N-((1S,2R)-2-(6-fluoro-2,3-dimethylphenyl)-1-(2H-tetrazol-5-yl)propyl)sulfamoyl)phenyl)-N,N-dimethylacetamide]
8 | ≤ 0.1 | 10 to 30 | Cc1ccc(F)c([C@@H](C)[C@H](NS(=O)(=O)c2ccc(Cl)cc2N(C)CCO)c2nn[nH]n2)c1C [Example 77, 4-chloro-N-((1S,2R)-2-(6-fluoro-2,3-dimethylphenyl)-1-(2H-tetrazol-5-yl)propyl)-2-((2-hydroxyethyl)(methyl)amino)benzenesulfonamide]
9 | 5 to 30 | 50 to 100 | Cc1ccc(Cl)cc1S(=O)(=O)N[C@H](c1nn[nH]n1)[C@H](C)c1c(F)ccc(C)c1C [Example 53, 5-chloro-N-((1S,2R)-2-(6-fluoro-2,3-dimethylphenyl)-1-(2H-tetrazol-5-yl)propyl)-2-methylbenzenesulfonamide]

Reference: US20240158383A1, “RIBONUCLEOTIDE REDUCTASE (RNR) INHIBITORS AND USES THEREOF” (Boundless Bio, Inc., priority 2021, published 2024)
